Here are results for four compounds from PMC11357484, “Investigating Changes in Pharmacokinetics of Steroidal Alkaloids from a Hydroethanolic Fritillariae thunbergii Bulbus Extract in 2,4-Dinitrobenzene Sulfonic Acid-Induced Colitis Rats” (Pharmaceuticals, 2024).

Data set [1] is described as follows: Pharmacokinetics of steroidal alkaloids after single oral FTB dose in normal and DNBS-induced colitis rats. The data set is classed as in vivo, Sprague–Dawley rats. The conditions noted are these: for AUC_%Extrap_obs / AUClast / AUMClast / Cmax / MRT last / Tmax / half-life: oral FTB 1 g/kg single dose, plasma, mean ± SD, n = 5; for Cmax / MRT last / Tmax / half-life: male, Sprague-Dawley, rat, po, 1 g/kg; for half-life under colitis compared with normal conditions / systemic exposure under colitis condition compared with normal state: oral FTB 1 g/kg, DNBS vs normal rats. On the procedure:
Ten-week-old male Sprague–Dawley rats were obtained from Samtaco (Osan, Republic of Korea), quarantined, and acclimatized for one week before the experiments. All animal experiments were approved by the Animal Care and Use Committee of Chungnam National University (202304A-CNU-067). The rats were fasted for 14–16 h the day before administration of DNBS (Sigma-Aldrich). After the rats were anesthetized with isoflurane, the colitis group received a single dose of 30 mg/250 μL in 50% ethanol through a medical grade polyurethane catheter, injected rectally into the descending colon 8 cm from the anal sphincter. DNBS was administered slowly over 1 min, and the rats were kept supine in the Trendelenburg position for 3 min after injection to prevent leakage. The normal group received only 50% ethanol, following the same procedure as described above. The pharmacokinetic study was performed four days after DNBS administration, and both the normal and DNBS groups were orally administered a single dose of 1 g/kg FTB. Blood samples were obtained from the tail vein at 0, 0.5, 0.75, 1, 2, 4, 6, 8, 10, 12, 24, and 30 h, and the rats were sacrificed after the last blood collection. The plasma samples obtained were centrifuged at 16,000× g for 15 min and stored at −80 °C until analysis.
Plasma concentrations were measured using UPLC-MS/MS (Agilent Technologies Inc.) in the same manner as described above. 100 μL of plasma was vortexed with 20 μL ammonia water and 800 μL ethyl acetate for 15 min and centrifuged at 16,000× g for 15 min. After evaporating 800 μL of the supernatant under nitrogen at 40 °C, 50 μL of 50% methanol was added. The mixture was then vortexed and centrifuged, and 5 μL of the final extract was used for analysis.
For the plasma concentration analysis, the limit of detection and limit of quantification (LOQ) were defined based on the concentration of the analyte, which generated signal-to-noise (S/N) ratios of 3 and 10, respectively, following the “Guideline on Bioanalytical Method Validation” for the Ministry of Food and Drug Safety in Korea (MFDS 2023). Among the active ingredients of FTB, peimine, peimisine, peiminine, and sipeimine were detected in concentrations above the LOQ —the multiple reaction monitoring conditions of each of them are summarized in Supplementary Table S2. The calibration curves were linear over the concentration range of 0 to 2000 ng/mL, with a correlation coefficient of R^2 > 0.99. Precision and accuracy were evaluated by calculating the intra- and inter-day recoveries of quality control samples at three concentrations: 10, 50, and 100 ng/mL. The intra- and inter-day recoveries were within the range of 84.6 to 115.6%, and the coefficient of variation was less than 10%. Detailed validation results for the analysis method of peimine, peimisine, peiminine, and sipeimine are summarized in Supplementary Table S3.
The pharmacokinetic parameters were calculated based on a non-compartmental model using Monolix 2023R1 (Lixoft SAS, Simulations Plus Inc., Lancaster, CA, USA). The dosage of each component was calculated based on the content of the component within the FTB, and applied in the pharmacokinetics analysis. From the data analyzed, the Cmax of FTB and the time to Cmax (Tmax) were determined. Elimination half-life was obtained by linear regression of log-tranformed concentration data in the late phase. The AUC was estimated using the linear log-trapezoidal and linear up-log-down rules for the time of final concentration in each group.

For data set [2] the following is noted: cited from earlier work.
The subject of data set [3] is RAW 264.7 cells. Nature of the data set: Cell viability (EZ-Cytox) in RAW 264.7 cells. The data set is classed as cell-based, mouse. As to conditions: 24 h incubation. On the procedure:
(§1) The RAW 264.7, a mouse macrophage cell line (American Type Culture Collection, Manassas, VA, USA), was grown in DMEM medium supplemented with 10% fetal bovine serum and 1% penicillin–streptomycin at 37 °C with 5% CO2.
To determine cell viability against the four steroidal alkaloids, peimine, peimisine, peiminine, and sipeimine, RAW 264.7 cells were seeded at a density of 5 × 10^4 cells/well in 96-well plates and incubated overnight. Cells were then incubated with various concentrations of the four compounds (0, 0.78, 1.56, 3.13, 6.25, 12.5, 25, 50, and 100 μg/mL) for 24 h, respectively. Subsequently, 10 μL of EZ-Cytox (DoGenBio Co., Seoul, Republic of Korea) was added and incubated for 1 h. Absorbance was measured at 450 nm using an enzyme-linked immunosorbent assay reader (Bio-Rad Laboratories, Hercules, CA, USA). Cell viability was calculated by comparing the values measured with those of untreated cells.

For data set [4], the system named is LPS-stimulated RAW 264.7 cells. The data set can be described thus: Pro-inflammatory cytokine mRNA expression (qPCR) in LPS-stimulated RAW 264.7 cells. The format is cell-based, mouse. The conditions noted are these: 25 μg/mL; 24 h pretreatment then LPS 4 h; vs LPS alone. Here is the method: as §1
To evaluate the anti-inflammatory effects of the active ingredients in FTB, the cells were seeded in 12-well plates at 3 × 10^5 cells/mL and treated with 25 μg/mL of the four steroidal alkaloids, peimine, peimisine, peiminine and sipeimine, respectively, a concentration determined to be non-toxic according to the cell viability assay. LPS (Sigma-Aldrich, St. Louis, MO, USA) from Escherichia coli O111:B4 was used as a control at a concentration of 10 μg/mL. Cells were pretreated with the compounds for 24 h, followed by treatment with LPS for 4 h. After cells were harvested, total RNA was extracted using a total RNA extraction kit (Samjung Bioscience, Daejeon, Republic of Korea), and the extracted RNA was reverse transcribed into cDNA. The synthesized cDNA was subjected to quantitative polymerase chain reaction to measure the mRNA expression levels of cytokines using the following forward and reverse primers: IL-1β, forward, 5′-[…]-3′; reverse, 5′-[…]-3′; IL-6, forward, 5′-[…]-3′; reverse, 5′-[…]-3′; TNF-α, forward, 5′-[…]-3′; reverse, 5′-[…]-3′; GAPDH, forward, 5′-[…]-3′; reverse, 5′-[…]-3′.
A general note: Real-time PCR tracks product formation cycle by cycle.

SMILES strings stand for the structures.

With `C[C@H]1CC[C@@H]2N(C1)C[C@H]1[C@@H]3C[C@H]4[C@@H](C[C@H](O)[C@H]5C[C@@H](O)CC[C@@]54C)[C@@H]3CC[C@@H]1[C@]2(C)O` [peimine], in data set [1] (DNBS-treated (colitis) rats), the AUC_%Extrap_obs is reported as 6.6 ± 6.6%, the AUClast came out at 1076.9 ± 444.1 h∗ng/mL, the AUMClast stood at 2819.7 ± 1408.9 h∗h∗ng/mL and the highest level (Cmax) was 351 ± 150 ng/mL. In data set [1] (DNBS-treated (colitis) rats), the mean residence time MRT last amounted to 2.7 ± 0.6 h, the Tmax stood at 1 ± 0.7 h and the half-life was 1.9 ± 0.7 h. Further, in data set [1] (normal rats), the Cmax came to 356 ± 253 ng/mL, the mean residence time (MRT last) amounted to 3.7 ± 0.8 h, the time to peak (Tmax) was 0.7 ± 0.2 h and the half-life was 4 ± 2.5 h. In data set [1] (normal rats), this compound returned an AUC_%Extrap_obs of 6.7 ± 5.5%, an AUClast of 1311.8 ± 762.6 h∗ng/mL and an AUMClast of 4511.4 ± 2253.8 h∗h∗ng/mL. In data set [1], the “half-life under colitis compared with normal conditions” value is given as “shorter half-life” and the “systemic exposure under colitis condition compared with normal state” value (“systemic exposure … compared with normal state” for short) is “no observable difference”. The “partition coefficient (logP)” value in data set [2] is reported as 4.1. The “concentrations at which no toxicity was shown (cell viability)” value in data set [3] was 0 to 25000 ng/mL.

Turning to `C[C@H]1CC[C@@H]2N(C1)C[C@H]1[C@@H]3C[C@H]4[C@@H](CC(=O)[C@H]5C[C@@H](O)CC[C@@]54C)[C@@H]3CC[C@@H]1[C@]2(C)O` [peiminine], in data set [1] (DNBS-treated (colitis) rats), the AUC_%Extrap_obs is recorded as 3.3 ± 2.9%, the AUClast turned out to be 888.8 ± 286.0 h∗ng/mL, the AUMClast is 3149.7 ± 1242.0 h∗h∗ng/mL and the maximum concentration (Cmax) came out at 209 ± 51.1 ng/mL. Besides, in data set [1] (DNBS-treated (colitis) rats), the MRT last was 3.6 ± 0.6 h, the time to peak (Tmax) was 1.3 ± 0.8 h and the half-life was 1.8 ± 0.9 h. Moreover, in data set [1] (normal rats), the Cmax amounted to 228 ± 110 ng/mL, the MRT last amounted to 4.7 ± 1.1 h, the time to peak (Tmax) was 1 ± 0.2 h and the half-life was 4.5 ± 2 h. Besides, in data set [1] (normal rats), the AUC_%Extrap_obs is on record as 14.5 ± 15.7%, the AUClast is reported as 1172.4 ± 392.3 h∗ng/mL and the AUMClast is reported as 5302.0 ± 1844.3 h∗h∗ng/mL. In data set [1], the “half-life under colitis compared with normal conditions” value is given as “shorter half-life” and the “systemic exposure … compared with normal state” value is “no observable difference”. Also, in data set [2], the pKa result is given as “approximately 14” and the “partition coefficient (logP)” value is recorded as 3.9. Also, in data set [4], the “IL-6 mRNA expression lowered” value was “approximately 5 fold”. Moreover, in data set [3], the “concentrations at which no toxicity was shown (cell viability)” value lay within 0 to 25000 ng/mL.

On to `CC1=C2C[C@H]3[C@@H](CC(=O)C4C[C@@H](O)CC[C@@]43C)[C@@H]2CC[C@]12OC1C[C@H](C)CN[C@H]1[C@H]2C` (some centres unmarked) [peimisine], for which, in data set [1] (DNBS-treated (colitis) rats), the AUC_%Extrap_obs turned out to be 8.9 ± 11.6%, the AUClast is given as 16,895.4 ± 5782.1 h∗ng/mL, the AUMClast is recorded as 126,755.7 ± 54,141.2 h∗h∗ng/mL and the concentration peaked (Cmax) at 2330 ± 363 ng/mL. Moreover, in data set [1] (DNBS-treated (colitis) rats), the MRT last was 7.3 ± 1.3 h, the Tmax came out at 1.5 ± 0.8 h and the half-life is 7.7 ± 4.9 h. Further, in data set [1] (normal rats), the Cmax was determined as 656 ± 672 ng/mL, the mean residence time MRT last worked out at 5 ± 2 h, the time of peak concentration (Tmax) worked out at 0.9 ± 0.2 h and the half-life was 3.9 ± 1.7 h. For the same compound, in data set [1] (normal rats), the AUC_%Extrap_obs is 5.3 ± 4.0%, the AUClast worked out at 3959.3 ± 4738.6 h∗ng/mL and the AUMClast is 23,522.8 ± 33,482.7 h∗h∗ng/mL. Moreover, in data set [1], the “systemic exposure … compared with normal state” value was “approximately five times higher”. For the same compound, in data set [2], the pKa result is “approximately 14” and the “partition coefficient (logP)” value is reported as 2.7. In data set [4], the “IL-1β mRNA expression lowered” value is listed as “about 6 fold” and the “TNF-α mRNA expression lowered” value is reported as roughly 3 fold. The “concentrations at which no toxicity was shown (cell viability)” value in data set [3] lay within 0 to 25000 ng/mL.

`C[C@H]1CC[C@@H]2N(C1)C[C@H]1[C@@H]3C[C@H]4[C@@H](CC(=O)[C@H]5C[C@@H](O)CC[C@@]54C)[C@@H]3CC[C@H]1[C@]2(C)O` [sipeimine]: in data set [1] (DNBS-treated (colitis) rats), the AUC_%Extrap_obs was 11.0 ± 8.3%, the AUClast is recorded as 764.0 ± 285.5 h∗ng/mL, the AUMClast was 3588.3 ± 1486.0 h∗h∗ng/mL and the Cmax came out at 162 ± 97 ng/mL. Besides, in data set [1] (DNBS-treated (colitis) rats), the MRT last amounted to 4.7 ± 0.6 h, the Tmax turned out to be 2.4 ± 1.2 h and the half-life is 3.2 ± 1.6 h. Further, in data set [1] (normal rats), the highest level (Cmax) was 64.7 ± 13.4 ng/mL, the MRT last turned out to be 5.4 ± 1.7 h, the time to peak (Tmax) is 1.3 ± 0.5 h and the half-life was 6.9 ± 5.6 h. In data set [1] (normal rats), this compound displayed an AUC_%Extrap_obs of 10.4 ± 8.6%, an AUClast of 463.5 ± 232.8 h∗ng/mL and an AUMClast of 2675.8 ± 2026.3 h∗h∗ng/mL. Further, in data set [1], the “half-life under colitis compared with normal conditions” value is listed as “shorter half-life” and the “systemic exposure … compared with normal state” value is “no observable difference”. Besides, in data set [2], the pKa entry is on record as “approximately 14” and the “partition coefficient (logP)” value is 4.4. Moreover, in data set [3], the “concentrations at which no toxicity was shown (cell viability)” value is 0 to 25000 ng/mL.

What is called Cmax is the highest concentration seen after dosing. A word on the MRT last: it is the average time that molecules of a dose stay in the body. A word on the Tmax: it is the time at which the peak concentration occurs. Usually half-life stands for the time in which the quantity being followed falls by half.
